Results: ChEMBL document CHEMBL6127082, “Genome-Led Discovery of the Antibacterial Cyclic Lipopeptide Kutzneridine A and Its Silent Biosynthetic Gene Cluster from Kutzneria Species” (2024)
≈ marks a conversion by molar mass, not a printed value. Calls of active or inactive are those of the source. No cut-off for these calls is given here.

Assays:
Staphylococcus aureus [1] = experiment: Antibacterial activity against methicillin-resistant Staphylococcus aureus MB5395 assessed as inhibition of bacterial growth; assay type: functional
Aspergillus fumigatus = experiment: Antifungal activity against Aspergillus fumigatus ATCC46645 assessed as inhibition of […] growth; assay type: functional, organism-based
Enterococcus faecium [2] = experiment: Antibacterial activity against vancomycin A-resistant Enterococcus faecium assessed as inhibition of bacterial growth; assay type: functional
Enterococcus faecium [3] = experiment: Antibacterial activity against vancomycin B-resistant Enterococcus faecium assessed as inhibition of bacterial growth; assay type: functional
Staphylococcus aureus [4] = experiment: Antibacterial activity against methicillin-resistant Staphylococcus aureus assessed as inhibition of bacterial growth; assay type: functional
Acinetobacter baumannii = experiment: Antibacterial activity against Acinetobacter baumannii ATCC19606 assessed as inhibition of bacterial growth; assay type: functional, organism-based

Compound	MIC95 (Staphylococcus aureus [1]) [µg/mL]	Activity (Aspergillus fumigatus)	MIC95 (Enterococcus faecium [2]) [µg/mL]	MIC95 (Enterococcus faecium [3]) [µg/mL]	MIC95 (Staphylococcus aureus [4]) [µg/mL]	Activity (Acinetobacter baumannii)
CCCCC/C=C/C=C/C(=O)NC[C@@H]1NC(=O)CN2C(=O)[C@H](CNC(=O)[C@@H](Cc3ccc(OC)cc3)NC1=O)NC2(C)C	4 (≈ 6.7 µM)	inactive	16 (≈ 26.8 µM)	8 (≈ 13.4 µM)	16 (≈ 26.8 µM)	inactive
CCCCC/C=C/C=C/C(=O)NC[C@@H]1NC(=O)CNC(=O)[C@@H](N)CNC(=O)[C@@H](Cc2ccc(OC)cc2)NC1=O	–	–	–	–	16 (≈ 28.7 µM)	–
